Experimental data reported in patent US20030224390A1, “Method of identifying conformation-sensitive binding peptides and uses thereof” (Karo Bio AB, priority 2000, published 2003).

Legend:
ERβ = ERβ (Homo sapiens, UniProt Q92731); assay: Binding of the peptide probes to ERβ in the presence of modulators (Table 15b)
androgen receptor [1] = biological target: T1, androgen receptor (Homo sapiens, UniProt P10275); type: cell-based; design: expressed in transfected cells; conditions: for luciferase normalized to β-galactosidase, DHT / luciferase normalized to β-galactosidase, MPA / luciferase normalized to β-galactosidase, RU486 / luciferase normalized to β-galactosidase, no compound: mammalian two-hybrid, Huh-7 cells; for luciferase normalized to β-galactosidase, DHT: ligand DHT; for luciferase normalized to β-galactosidase, MPA: ligand MPA; for luciferase normalized to β-galactosidase, RU486: ligand RU486
T1 sequence (P10275 1-920): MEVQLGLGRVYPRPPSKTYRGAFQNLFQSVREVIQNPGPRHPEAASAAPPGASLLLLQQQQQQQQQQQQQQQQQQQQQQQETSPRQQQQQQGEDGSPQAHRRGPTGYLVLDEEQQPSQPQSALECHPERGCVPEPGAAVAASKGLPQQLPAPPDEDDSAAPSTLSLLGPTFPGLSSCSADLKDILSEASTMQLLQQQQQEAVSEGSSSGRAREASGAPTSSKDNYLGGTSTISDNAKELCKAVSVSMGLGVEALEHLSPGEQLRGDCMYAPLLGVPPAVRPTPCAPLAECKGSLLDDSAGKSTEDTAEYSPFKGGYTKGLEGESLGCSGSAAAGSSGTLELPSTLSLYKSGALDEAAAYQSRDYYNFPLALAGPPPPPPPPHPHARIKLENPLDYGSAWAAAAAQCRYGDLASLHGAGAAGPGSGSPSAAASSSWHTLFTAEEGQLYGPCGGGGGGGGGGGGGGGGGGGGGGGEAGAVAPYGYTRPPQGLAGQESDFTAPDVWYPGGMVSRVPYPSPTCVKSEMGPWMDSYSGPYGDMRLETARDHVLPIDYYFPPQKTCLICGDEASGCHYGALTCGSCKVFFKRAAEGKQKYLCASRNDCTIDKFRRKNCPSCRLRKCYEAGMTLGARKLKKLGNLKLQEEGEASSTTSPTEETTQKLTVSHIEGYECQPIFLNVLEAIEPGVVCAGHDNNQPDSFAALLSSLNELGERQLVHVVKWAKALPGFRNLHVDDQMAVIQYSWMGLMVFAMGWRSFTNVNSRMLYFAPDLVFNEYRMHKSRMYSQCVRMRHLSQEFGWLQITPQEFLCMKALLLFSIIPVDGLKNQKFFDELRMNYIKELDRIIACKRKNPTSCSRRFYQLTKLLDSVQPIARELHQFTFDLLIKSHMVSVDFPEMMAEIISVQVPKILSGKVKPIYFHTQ
Excerpt: We used a mammalian two-hybrid system to determine specificities of the AR-binding peptides previously identified, through screening of the aforementioned yeast library, as ligand-dependent in their binding activity. Ligand was provided to the cells so the interaction could be observed. The human hepatoma cell line, Huh-7, was used as the recipient of two-hybrid vectors, pM and pVP16 (Clontech) (FIGS. 6A and 6B), containing fusions with peptide and AR, respectively. According to Clontech literature, the Clontech vectors pM and VP16 generate fusions of protein X with the GAL4 DNA-BD and fusions of protein Y with the VP16AD, in the Mammalian MM Two-Hybrid Assay Kit (#K1602-1). (Note: pM and VP16 contain unique cloning sites in the same order and reading frame as the DNA-BD and AD, respectively, vectors in the yeast […] Two-Hybrid Systems.) A third vector, pG5CAT, provides a CAT reporter gene under the control of a GAL4-responsive element and minimal promoter of the adenovirus E1b. The three vectors are cotransfected into any suitable mammalian host cell line by standard methods. The interaction between proteins X and Y is then assayed by measuring CAT gene expression by any standard method. In the absence of activation (i.e., no protein-protein interaction), the minimal E1b promoter will not express significant levels of CAT.
Briefly, cells are seeded in a 24-well culture plate to a density of 50-80% confluence in phenol red-free media containing charcoal-dextran stripped fetal bovine serum (10%). Following incubation overnight, cells are transfected with plasmids pM-peptide, pVP16-AR, pCMV-b-gal, and p5XGAL-Luc3 DNAs using lipofectamine 2000 (LifeTech) according to the manufacturer's protocol. Transfections are allowed to proceed for 6 hours and the transfection media is aspirated and replaced with recovery media for 18 hours. Following the recovery period, cells are treated with compound for 24 hours prior to cell harvesting. Cells are washed with PBS and then lysed using the lysis buffer from the Galacto-Light Plus β-galactosidase assay kit (Tropix). Assays for luciferase and β-galactosidase were performed as described by the manufacturer. Peptide/AR interactions are described in terms of the luciferase activity normalized for transfection efficiency using β-galactosidase activity (see FIG. 4A). Two types of useful information arose from these methods: 1) we generated a panel of useful peptide probes to analyze the conformational state of AR, and 2) we “fingerprinted” AR modulators with respect to AR conformation (FIG. 4B). […] FIG. 4B is the converse of 4A. It compares the ability of six ligands (DHT, MPA, CYP, RU486, FLUT and DHEAs to interact with AR in the presence of each of four peptides (D30, 5G11, B8H3 and […]). Thus, it is a “fingerprint” of each of the six ligands using a four peptide panel. (Note that “1269” and D30” refer to the same peptide.)

androgen receptor [2] = biological target: T1, androgen receptor; assay: Yeast two-hybrid screening of unbiased X15 peptide library, ligand induced β-galactosidase activity (FIG. 3, Table 503); type: cell-based; design: expressed in transfected cells; host or cells: Saccharomyces cerevisiae PJ69-4α; ligand induced β-galactosidase activity, No Lig / ligand induced β-galactosidase activity, DHT / ligand induced β-galactosidase activity, CPA / ligand induced β-galactosidase activity, RU / ligand induced β-galactosidase activity, Test / ligand induced β-galactosidase activity, MPA: unit not given here; conditions: for Fold induction: untitled table before Table 503, values match DHT / No Lig of Table 503; for ligand induced β-galactosidase activity, CPA / ligand induced β-galactosidase activity, DHT / ligand induced β-galactosidase activity, RU / ligand induced β-galactosidase activity, No Lig / ligand induced β-galactosidase activity, MPA / ligand induced β-galactosidase activity, Test: yeast two-hybrid
Excerpt: Our library contained predominantly 15 random amino acid residues/peptide in order to identify motifs that might interact with nuclear receptor domains. If ligand is provided to the cells, one can screen for peptides that interact with the ligand-bound receptor. […] Included at the ends of the oligonucleotide were the synthetic restriction endonuclease cleavage sites, EcoRI or Mfe I (5′ end) and Sal I (3′ end). Oligonucleotides were annealed, then cleaved with excess restriction endonuclease and purified on agarose gels. The purified set of oligonucleotides was subcloned as an in-frame carboxy-terminal fusion to a Gal4 DNA binding domain (plasmid vector pMA424 derivative). […] The transformation mix was divided and grown on plates of selective media containing ligand and 25 mM 3-aminotriazole at 30° C. until colonies appeared in 3-7 days. […] Dihydrotestosterone (DHT) and medroxyprogesterone (MPA) were added to the media at 100 nM to identify peptides that interact with the receptor in the presence of ligand. After colonies appeared they were picked and dispersed into individual wells of a 96-well plate containing rich media (YPD).
To determine ligand dependence, two microliter aliquots were removed from the cell suspension, and arrayed and spotted onto each of two rectangular agar plates, one with 100 nM ligand and one without ligand. Growth was monitored daily.
A secondary test of ligand dependent activation was performed using the integrated GAL4-driven lacZ gene. Cell suspensions of the initial positive clones were diluted 20-fold into 20 microliters of rich media in a microplate and grown overnight at 30° C. in the presence and absence of ligand. Microplates were centrifuged for 5 minutes at 3000 rpm in a swinging table top centrifuge to pellet the yeast cells, and the overlying media was aspirated. […] An OD650 density determination was made to normalize the β-galactosidase activity. β-galactosidase activity was monitored following the addition of buffer containing chlorophenol red-β-galactopyranoside (CPRG) (Boehringer Mannheim) substrate at a final concentration of 0.5 mM. […] The maximum slope value of this measurement was normalized to cell density from the initial OD650 value, and the relative ligand dependence of β-galactosidase was determined by comparing the values plus and minus ligand.
In FIG. 3, all of these ligands were tested. The plasmids from true positives were extracted using standard yeast extraction protocols and re-transformed to verify the positive phenotype.

[3] = biological target: T2, Gal4 transcriptional activation domain (AD) fused in frame with AR (pGAD-C2) (yeast), P10275; assay: cell-based or functional assay
T2 chain: T1 sequence (P10275 1-920)

[4] = biological target: T3, pVP16-AR (VP16 activation domain fused to androgen receptor), P10275; assay: cell-based or functional assay
T3 chain: T1 sequence (P10275 1-920)

Sequence of ERβ (Q92731 whole entry, species assumed): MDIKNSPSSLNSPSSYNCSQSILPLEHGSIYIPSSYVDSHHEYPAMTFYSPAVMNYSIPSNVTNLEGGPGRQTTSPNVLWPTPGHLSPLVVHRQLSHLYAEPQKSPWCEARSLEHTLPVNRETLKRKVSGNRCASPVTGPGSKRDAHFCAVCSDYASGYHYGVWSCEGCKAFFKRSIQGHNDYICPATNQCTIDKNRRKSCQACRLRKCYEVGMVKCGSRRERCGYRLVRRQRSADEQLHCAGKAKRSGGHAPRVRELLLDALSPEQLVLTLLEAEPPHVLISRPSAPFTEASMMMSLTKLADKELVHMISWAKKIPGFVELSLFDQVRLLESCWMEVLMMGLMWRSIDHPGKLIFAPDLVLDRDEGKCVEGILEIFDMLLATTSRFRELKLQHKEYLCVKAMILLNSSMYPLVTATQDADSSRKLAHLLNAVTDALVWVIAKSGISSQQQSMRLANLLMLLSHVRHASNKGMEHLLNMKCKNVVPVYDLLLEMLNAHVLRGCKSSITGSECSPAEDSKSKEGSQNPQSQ

CCN(CC)CCOc1ccc(C(=C(Cl)c2ccccc2)c2ccccc2)cc1 [Clomiphene]
Equiv. (equivalency), peptide probe α/βIII on ERβ (ERβ): 34%
Equiv. (equivalency), peptide probe α/βIV on ERβ (ERβ): 0%
Equiv. (equivalency), peptide probe α/βV on ERβ (ERβ): 13%
Equiv. (equivalency), peptide probe βI on ERβ (ERβ): −62%
Equiv. (equivalency), peptide probe βIII on ERβ (ERβ): −61%

C[C@]12CC[C@@H]3c4ccc(O)cc4CC[C@H]3[C@@H]1C[C@@H](O)[C@@H]2O [Estriol]
Equiv. (equivalency), peptide probe α/βI on ERβ (ERβ; probe α/βI, positive: % of maximum stimulation by the modulator used to isolate the probe, negative: % of reduction by ICI 182,780): 81%
Equiv. (equivalency), peptide probe α/βIII on ERβ (ERβ): −57%
Equiv. (equivalency), peptide probe α/βIV on ERβ (ERβ): −75%
Equiv. (equivalency), peptide probe α/βV on ERβ (ERβ): 0%
Equiv. (equivalency), peptide probe βI on ERβ (ERβ): −96%
Equiv. (equivalency), peptide probe βIII on ERβ (ERβ): 77%

O=C(c1ccc(OCCN2CCCCC2)cc1)c1c(-c2ccc(O)cc2)sc2cc(O)ccc12 [Raloxifene]
Equiv. (equivalency), peptide probe α/βIII on ERβ (ERβ): 77%
Equiv. (equivalency), peptide probe α/βIV on ERβ (ERβ): 0%
Equiv. (equivalency), peptide probe α/βV on ERβ (ERβ): 0%
Equiv. (equivalency), peptide probe βI on ERβ (ERβ): −53%
Equiv. (equivalency), peptide probe βIII on ERβ (ERβ): −71%

EFHSRLRVEVVSWGIGSTCSQANSGRISYDL* [B8H3]
luciferase normalized to β-galactosidase, CYP. (androgen receptor [1]): 10.47
luciferase normalized to β-galactosidase, DHT (androgen receptor [1]): 11.6
luciferase normalized to β-galactosidase, MPA (androgen receptor [1]): 11.33
luciferase normalized to β-galactosidase, RU486 (androgen receptor [1]): 3.879
luciferase normalized to β-galactosidase, no compound (androgen receptor [1]): 0.1316
Fold induction (androgen receptor [2]): 22
ligand induced β-galactosidase activity, CPA (androgen receptor [2]): 0.3927
ligand induced β-galactosidase activity, DHT (androgen receptor [2]): 3.807
ligand induced β-galactosidase activity, RU (androgen receptor [2]): −0.0
ligand induced β-galactosidase activity, No Lig (androgen receptor [2]): 0.1737

EFPELLAMTRWGRHAALLEPQRLPPPRTTTQPQTEFERMFFFTRPMRTTGLLDLQPS [B2A7]
ligand induced β-galactosidase activity, CPA (androgen receptor [2]): 0.2919
ligand induced β-galactosidase activity, DHT (androgen receptor [2]): 1.719
ligand induced β-galactosidase activity, RU (androgen receptor [2]): 0.5
ligand induced β-galactosidase activity, No Lig (androgen receptor [2]): 0.3711

EFRFPFHEMVREWESMGLERVRYAEP [M4D1]
ligand induced β-galactosidase activity, CPA (androgen receptor [2]): −0.03955
ligand induced β-galactosidase activity, DHT (androgen receptor [2]): 0.3948
ligand induced β-galactosidase activity, MPA (androgen receptor [2]): 1.698
ligand induced β-galactosidase activity, RU (androgen receptor [2]): 0.1
ligand induced β-galactosidase activity, Test (androgen receptor [2]): 0.1337
ligand induced β-galactosidase activity, No Lig (androgen receptor [2]): 0

EFRQSFVSEILGGGWLPLDLOPS [M2H3]
Fold induction (androgen receptor [2]): 10
ligand induced β-galactosidase activity, CPA (androgen receptor [2]): 8.592
ligand induced β-galactosidase activity, DHT (androgen receptor [2]): 24.12
ligand induced β-galactosidase activity, MPA (androgen receptor [2]): 19.25
ligand induced β-galactosidase activity, RU (androgen receptor [2]): 6.8
ligand induced β-galactosidase activity, Test (androgen receptor [2]): 26.57
ligand induced β-galactosidase activity, No Lig (androgen receptor [2]): 2.53

EFRSSVFEQMYLCTGGSLDLQPS* [B5G11]
luciferase normalized to β-galactosidase, CYP. (androgen receptor [1]): 4.462
luciferase normalized to β-galactosidase, DHT (androgen receptor [1]): 15.84
luciferase normalized to β-galactosidase, MPA (androgen receptor [1]): 8.029
luciferase normalized to β-galactosidase, RU486 (androgen receptor [1]): 0.1051
luciferase normalized to β-galactosidase, no compound (androgen receptor [1]): 0.05028
ligand induced β-galactosidase activity, CPA (androgen receptor [2]): 0.9726
ligand induced β-galactosidase activity, DHT (androgen receptor [2]): 3.964
ligand induced β-galactosidase activity, RU (androgen receptor [2]): 0.9
ligand induced β-galactosidase activity, No Lig (androgen receptor [2]): 0.6382

EFVNWDAVVPWSELVALLDLOPS [B8A10]
Fold induction (androgen receptor [2]): 1
ligand induced β-galactosidase activity, CPA (androgen receptor [2]): 0.3955
ligand induced β-galactosidase activity, DHT (androgen receptor [2]): 0.6163
ligand induced β-galactosidase activity, RU (androgen receptor [2]): 0.4
ligand induced β-galactosidase activity, No Lig (androgen receptor [2]): 0.8753

HPTHSSRLWELLMEATPTM [D30]
luciferase normalized to β-galactosidase, CYP. (androgen receptor [1]): 11.18
luciferase normalized to β-galactosidase, DHT (androgen receptor [1]): 12.59
luciferase normalized to β-galactosidase, MPA (androgen receptor [1]): 15.62
luciferase normalized to β-galactosidase, RU486 (androgen receptor [1]): 0.8461
luciferase normalized to β-galactosidase, no compound (androgen receptor [1]): 0.03854

B1: B5G11, P04386 1-147 (peptide)
chain: MKLLSSIEQACDICRLKKLKCSKEKPKCAKCLKNNWECRYSPKTKRSPLTRAHLTEVESRLERLEQLFLLIFPREDLDMILKMDSLQDIKALLTGLFVQDNVNKDAVTDRLASVETDMPLTLRQHRISATSSSEESSNKGQRQLTVSEFRSSVFEQMYLCTGGSLDLQPS
modifications: not checked
Fold induction, yeast two-hybrid [3]: 6 fold
β-galactosidase activity, yeast two-hybrid; CPA [3]: 0.973
β-galactosidase activity, yeast two-hybrid; DHT [3]: 3.96
β-galactosidase activity, yeast two-hybrid; No Lig [3]: 0.638
β-galactosidase activity, yeast two-hybrid; RU [3]: 0.9
normalized luciferase activity, mammalian two-hybrid; CYP. [4]: 4.46
normalized luciferase activity, mammalian two-hybrid; DHT [4]: 15.8
normalized luciferase activity, mammalian two-hybrid; MPA [4]: 8.03
normalized luciferase activity, mammalian two-hybrid; RU486 [4]: 0.105
normalized luciferase activity, mammalian two-hybrid; no compound [4]: 0.0503
